Source: patent US8729091B2, “4-phenoxy-nicotinamide or 4-phenoxy-pyrimidine-5-carboxamide compounds” (Hoffmann-La Roche Inc., priority 2010, dated 2014)

Biological target: T1, human GPBAR1 receptor (Homo sapiens, UniProt Q8TDU6)
T1 construct: expressed in transfected cells
T1 sequence (Q8TDU6 1-330): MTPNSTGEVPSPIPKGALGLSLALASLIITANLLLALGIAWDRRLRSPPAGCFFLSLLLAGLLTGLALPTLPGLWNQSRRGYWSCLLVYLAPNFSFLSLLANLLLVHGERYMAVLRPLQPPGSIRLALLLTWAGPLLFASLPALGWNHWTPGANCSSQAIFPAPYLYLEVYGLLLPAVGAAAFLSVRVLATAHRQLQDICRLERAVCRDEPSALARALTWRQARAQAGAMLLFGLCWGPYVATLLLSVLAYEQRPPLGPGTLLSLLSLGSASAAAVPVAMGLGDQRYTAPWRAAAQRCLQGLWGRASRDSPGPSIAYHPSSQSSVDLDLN
Assay: functional cAMP assay in CHO-dhfr(minus) cells expressing human GPBAR1 receptors
Type: cell-based
Conditions: cAMP increase (TR-FRET) in CHO-dhfr(minus) cells expressing human GPBAR1; compounds incubated 30 min at 30° C.
Experimental: The final clone was verified by DNA sequence analysis. The plasmid was transfected into CHO cells deficient in dihydrofolate reductase activity (CHO-dhfr−) using Lipofectamine plus (Invitrogen). Clones were isolated in limited dilution conditions and identified by activities in the cAMP assay using lithocholic acid as agonist.
The growth medium was exchanged with Krebs Ringer Bicarbonate buffer with 1 mM IBMX and incubated at 30° C. for 30 min. Compounds were added to a final assay volume of 100 μl and incubated for 30 min at 30° C. […] The time-resolved energy transfer is measured by a TRF reader (Evotec Technologies GmbH, Hamburg Germany), equipped with a ND:YAG laser as excitation source.
EC50 values were determined using Activity Base analysis (ID Business Solution, Limited). […] Specificity for GPBAR1 was tested in non-transfected CHO cells in the same assay as above.

Row | SMILES | EC50
1 | COc1cc(F)c(F)cc1N(C)C(=O)c1cnccc1Oc1cc(Cl)ccc1Cl [Example 19, 4-(2,5-Dichloro-phenoxy)-N-(4,5-difluoro-2-methoxy-phenyl)-N-methyl-nicotinamide] | 100 nM
2 | CN(C)c1ccc(Cl)cc1N(C)C(=O)c1cnccc1Oc1cc(Cl)ccc1Cl [Example 20, N-(5-Chloro-2-dimethylamino-phenyl)-4-(2,5-dichloro-phenoxy)-N-methyl-nicotinamide] | 400 nM
3 | CNc1cc(F)c(F)cc1N(C)C(=O)c1cnccc1Oc1cc(Cl)ccc1Cl [Example 21, 4-(2,5-Dichloro-phenoxy)-N-(4,5-difluoro-2-methylamino-phenyl)-N-methyl-nicotinamide] | 400 nM
4 | O=C(Nc1cccc2c1NCCC2)c1cnccc1Oc1cc(Cl)ccc1Cl [Example 22, 4-(2,5-Dichloro-phenoxy)-N-(1,2,3,4-tetrahydro-quinolin-8-yl)-nicotinamide] | 900 nM
5 | CN(C)c1ncccc1N(C)C(=O)c1cnccc1Oc1cc(Cl)ccc1Cl [Example 23, 4-(2,5-Dichloro-phenoxy)-N-(2-dimethylamino-pyridin-3-yl)-N-methyl-nicotinamide] | 200 nM
6 | CN(C(=O)c1cnccc1Oc1cc(Cl)ccc1Cl)c1cccc2c1NCCC2 [Example 24, 4-(2,5-Dichloro-phenoxy)-N-methyl-N-(1,2,3,4-tetrahydro-quinolin-8-yl)-nicotinamide] | 100 nM
7 | CN(C(=O)c1cnccc1Oc1cc(Cl)ccc1Cl)c1cc(F)c(Cl)cc1N(C)C1CC1 [Example 25, N-[4-Chloro-2-(cyclopropyl-methyl-amino)-5-fluoro-phenyl]-4-(2,5-dichloro-phenoxy)-N-methyl-nicotinamide] | 1700 nM
8 | O=C(c1cnccc1Oc1cc(Cl)c(Br)cc1Cl)N1CCN(C2CC2)c2ccccc21 [Example 26, [4-(4-Bromo-2,5-dichloro-phenoxy)-pyridin-3-yl]-(4-cyclopropyl-3,4-dihydro-2H-quinoxalin-1-yl)-methanone] | 4 nM
9 | COC(=O)c1cc(Cl)c(Oc2ccncc2C(=O)N2CCN(C3CC3)c3ccccc32)cc1Cl [Example 27, 2,5-Dichloro-4-[3-(4-cyclopropyl-3,4-dihydro-2H-quinoxaline-1-carbonyl)-pyridin-4-yloxy]-benzoic acid methyl ester] | 4 nM
10 | COC(=O)c1cc(Cl)c(Oc2ccncc2C(=O)N2CCN(C3CC3)c3ccccc32)cc1C(=O)OC [Example 28, 4-Chloro-5-[3-(4-cyclopropyl-3,4-dihydro-2H-quinoxaline-1-carbonyl)-pyridin-4-yloxy]-phthalic acid dimethyl ester] | 4 nM
11 | COC(=O)CNC(=O)c1cc(Cl)c(Oc2ccncc2C(=O)N2CCN(C3CC3)c3ccccc32)cc1Cl [Example 29, {2,5-Dichloro-4-[3-(4-cyclopropyl-3,4-dihydro-2H-quinoxaline-1-carbonyl)-pyridin-4-yloxy]-benzoylamino}-acetic acid methyl ester] | 100 nM
12 | O=C(O)CNC(=O)c1cc(Cl)c(Oc2ccncc2C(=O)N2CCN(C3CC3)c3ccccc32)cc1Cl [Example 30, {2,5-Dichloro-4-[3-(4-cyclopropyl-3,4-dihydro-2H-quinoxaline-1-carbonyl)-pyridin-4-yloxy]-benzoylamino}-acetic acid] | 400 nM
13 | COC(=O)CN(C)C(=O)c1cc(Cl)c(Oc2ccncc2C(=O)N2CCN(C3CC3)c3ccccc32)cc1Cl [Example 31, ({2,5-Dichloro-4-[3-(4-cyclopropyl-3,4-dihydro-2H-quinoxaline-1-carbonyl)-pyridin-4-yloxy]-benzoyl}-methyl-amino)-acetic acid methyl ester] | 100 nM
14 | CN(CC(=O)O)C(=O)c1cc(Cl)c(Oc2ccncc2C(=O)N2CCN(C3CC3)c3ccccc32)cc1Cl [Example 32, ({2,5-Dichloro-4-[3-(4-cyclopropyl-3,4-dihydro-2H-quinoxaline-1-carbonyl)-pyridin-4-yloxy]-benzoyl}-methyl-amino)-acetic acid] | 900 nM
15 | CCOC(=O)CCNC(=O)c1cc(Cl)c(Oc2ccncc2C(=O)N2CCN(C3CC3)c3ccccc32)cc1Cl [Example 33, 3-{2,5-Dichloro-4-[3-(4-cyclopropyl-3,4-dihydro-2H-quinoxaline-1-carbonyl)-pyridin-4-yloxy]-benzoylamino}-propionic acid ethyl ester] | 20 nM
16 | O=C(O)CCNC(=O)c1cc(Cl)c(Oc2ccncc2C(=O)N2CCN(C3CC3)c3ccccc32)cc1Cl [Example 34, 3-{2,5-Dichloro-4-[3-(4-cyclopropyl-3,4-dihydro-2H-quinoxaline-1-carbonyl)-pyridin-4-yloxy]-benzoylamino}-propionic acid] | 300 nM
17 | O=C(NCCS(=O)(=O)O)c1cc(Cl)c(Oc2ccncc2C(=O)N2CCN(C3CC3)c3ccccc32)cc1Cl [Example 35, 2-{2,5-Dichloro-4-[3-(4-cyclopropyl-3,4-dihydro-2H-quinoxaline-1-carbonyl)-pyridin-4-yloxy]-benzoylamino}-ethanesulfonic acid] | 100 nM
18 | CN(CCS(=O)(=O)O)C(=O)c1cc(Cl)c(Oc2ccncc2C(=O)N2CCN(C3CC3)c3ccccc32)cc1Cl [Example 36, 2-({2,5-Dichloro-4-[3-(4-cyclopropyl-3,4-dihydro-2H-quinoxaline-1-carbonyl)-pyridin-4-yloxy]-benzoyl}-methyl-amino)-ethanesulfonic acid] | 300 nM
19 | O=C(NCCCS(=O)(=O)O)c1cc(Cl)c(Oc2ccncc2C(=O)N2CCN(C3CC3)c3ccccc32)cc1Cl [Example 37, 3-{2,5-Dichloro-4-[3-(4-cyclopropyl-3,4-dihydro-2H-quinoxaline-1-carbonyl)-pyridin-4-yloxy]-benzoylamino}-propane-1-sulfonic acid] | 900 nM
20 | O=C(Nc1nnn[nH]1)c1cc(Cl)c(Oc2ccncc2C(=O)N2CCN(C3CC3)c3ccccc32)cc1Cl [Example 38, 2,5-Dichloro-4-[3-(4-cyclopropyl-3,4-dihydro-2H-quinoxaline-1-carbonyl)-pyridin-4-yloxy]-N-(1H-tetrazol-5-yl)-benzamide] | 40 nM
21 | O=C(NCc1nnn[nH]1)c1cc(Cl)c(Oc2ccncc2C(=O)N2CCN(C3CC3)c3ccccc32)cc1Cl [Example 39, 2,5-Dichloro-4-[3-(4-cyclopropyl-3,4-dihydro-2H-quinoxaline-1-carbonyl)-pyridin-4-yloxy]-N-(1H-tetrazol-5-ylmethyl)-benzamide] | 400 nM
22 | O=C(O)CCCNC(=O)c1cc(Cl)c(Oc2ccncc2C(=O)N2CCN(C3CC3)c3ccccc32)cc1Cl [Example 40, 4-{2,5-Dichloro-4-[3-(4-cyclopropyl-3,4-dihydro-2H-quinoxaline-1-carbonyl)-pyridin-4-yloxy]-benzoylamino}-butyric acid] | 200 nM
23 | COC(=O)c1cc(NC(=O)c2cc(Cl)c(Oc3ccncc3C(=O)N3CCN(C4CC4)c4ccccc43)cc2Cl)cn1C [Example 41, 4-{2,5-Dichloro-4-[3-(4-cyclopropyl-3,4-dihydro-2H-quinoxaline-1-carbonyl)-pyridin-4-yloxy]-benzoylamino}-1-methyl-1H-pyrrole-2-carboxylic acid methyl ester] | 100 nM
24 | Cn1cc(NC(=O)c2cc(Cl)c(Oc3ccncc3C(=O)N3CCN(C4CC4)c4ccccc43)cc2Cl)cc1C(=O)O [Example 42, 4-{2,5-Dichloro-4-[3-(4-cyclopropyl-3,4-dihydro-2H-quinoxaline-1-carbonyl)-pyridin-4-yloxy]-benzoylamino}-1-methyl-1H-pyrrole-2-carboxylic acid] | 100 nM
